Data reported in article PMC6324787, “Deletion of genes involved in the ketogluconate metabolism, Entner-Doudoroff pathway, and glucose dehydrogenase increase local and invasive virulence phenotypes in Streptococcus pneumoniae” (PLoS ONE, 2019).

Tests used:
[1] = biological target: T1, SP 0318 (Streptococcus pneumoniae, UniProt A0A0H2UNG9); experiment: ADP-glucokinase / G6PDH-coupled NADPH formation, A340; type: biochemical; conditions: 10 mM KDG, 2.5 mM ATP, 10 mM MgCl2, 50 mM Tris-Cl, pH 8.5, 37 °C
T1 construct: gene SP_0318
T1 sequence (A0A0H2UNG9 1-333): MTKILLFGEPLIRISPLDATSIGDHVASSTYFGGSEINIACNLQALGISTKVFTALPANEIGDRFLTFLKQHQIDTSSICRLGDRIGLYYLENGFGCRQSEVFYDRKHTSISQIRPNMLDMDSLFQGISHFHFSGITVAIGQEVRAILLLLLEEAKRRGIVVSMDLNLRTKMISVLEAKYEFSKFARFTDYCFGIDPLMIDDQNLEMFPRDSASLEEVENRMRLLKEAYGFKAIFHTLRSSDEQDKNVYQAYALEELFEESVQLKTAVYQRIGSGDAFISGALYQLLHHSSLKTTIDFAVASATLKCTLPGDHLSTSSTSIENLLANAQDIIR

[2] = biological target: T2, SP 0320 (Streptococcus pneumoniae, UniProt A0A0H2UNC9); experiment: NADH oxidation, A340; type: biochemical; conditions: 300 mM potassium 5-keto-D-gluconate, 150 µM NADH, 100 mM Tris-Cl, pH 6.5, 37 °C
T2 construct: gene SP_0320
T2 sequence (A0A0H2UNC9 1-271): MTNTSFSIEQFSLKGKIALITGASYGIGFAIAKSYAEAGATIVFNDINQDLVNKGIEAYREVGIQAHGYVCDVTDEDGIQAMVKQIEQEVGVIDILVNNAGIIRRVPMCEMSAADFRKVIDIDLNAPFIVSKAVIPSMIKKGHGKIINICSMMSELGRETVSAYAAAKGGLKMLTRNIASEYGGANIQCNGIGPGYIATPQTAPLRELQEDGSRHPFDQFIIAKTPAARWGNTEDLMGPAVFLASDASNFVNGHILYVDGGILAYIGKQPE

Row | Structure (SMILES) | ADP-glucokinase / G6PDH-coupled NADPH formation, A340 [1] | NADH oxidation, A340 [2]
1 | Nc1ncnc2c1ncn2[C@@H]1O[C@H](COP(=O)(O)OP(=O)(O)OP(=O)(O)O)[C@@H](O)[C@H]1O [ATP] | phosphorylation of 2-keto-3-deoxygluconate (KDG) in the presence of ATP to give KDGP | 
2 | NC(=O)C1=CN([C@@H]2O[C@H](COP(=O)(O)OP(=O)(O)OC[C@H]3O[C@@H](n4cnc5c(N)ncnc54)[C@H](O)[C@@H]3O)[C@@H](O)[C@H]2O)C=CC1 [NADH] |  | reduction of 5-keto-D-gluconate to D-gluconate with the subsequent oxidation of NADH
